{
  "source": "patent US20220259302A1",
  "about": "“METHODS AND COMPOSITIONS FOR THE IMPROVEMENT OF LYSOSOMAL FUNCTION AND TREATMENT OF NEURODEGENERATIVE DISEASE” (VANDERBILT UNIVERSITY, priority 2017, published 2022)",
  "key": {"mouse cortical cultures": {"system": "mouse cortical cultures", "test": "lysosome degradation of proteins in mouse cortical cultures exposed to IL-6", "type": "cell-based", "description": "Also, IL-6 can induce expression of inflammatory mediators, including TNFα, IL-6, IL-1β, Nox2 and Nox4, through both canonical pTyr-Stat3 transcription, and through noncanonical Stat3 NFκB transcription. Here, primary mouse cultures can be prepared on coverslip dishes as described and treated with IL-6 (10 ng/ml and 100 ng/ml) or a vehicle controls (media), daily for 4 days. Bafilomycin (100 nM) can be included in some dishes as a positive control for direct v-ATPase inhibition. Cultures can be fixed with 4% paraformaldehyde (PFA), and immunostained. Based on the data, accumulation of large lamp1 and p62-positive lysosomes in IL-6 and BAF treated cells can be observed. To then assess the role of redox effects on the v-ATPase, cultures can be co-treated with one of three antioxidants, TEMPOL (general radical scavenging), the C3 compound (catalytic superoxide dismutase, to reduce Nox-derived superoxide, regardless of isoform(s) which are contributing), and N-acetyl cysteine (to increase glutathione levels). When the v-ATPase is inhibited through its redox site, antioxidant treatment can prevent accumulation of undigested contents (p62, lamp1), and prevent enlargement of lysosomes. […]"}, "Nox2, Nox4 and p22phox": {"system": "Nox2, Nox4 and p22phox", "test": "Nox induction in brain of mice injected with IL-6 (qRT-PCR, Western blot, immunostaining)", "type": "in vivo, mouse", "details": "4 month and 24 month-old C57Bl/6 mice, IL-6 5 μg/kg on two consecutive days", "description": "These are the first data showing that inhibiting Nox activity can improve lysosome function in brain in vivo. […] Based on the observation herein that IL-6 is responsible for Nox2 induction in aging brain, and thus here, it is determined whether IL-6 mediates lysosome dysfunction. […] have a targeted deletion of Stat3 in neurons, and pharmacological inhibition of Nox-derived superoxide production can be used to test each of these possibilities. […] This increase occurred not only in microglia, but cortical and hippocampal neurons, and in synaptosomes. To confirm anti-Nox2 Ab specificity, slices and tissue from gp91phox−/− (Nox2−/−) mice were always included as controls."}, "[1]": {"system": "lamp1-positive lysosomes in neurons", "test": "intracellular lysosome size in neurons of aged mice (lamp1 and CatD immunostaining)", "type": "in vivo, mouse", "details": "aged mice treated with apocynin compared to water", "source_text": "Brain sections from 5 month and 20 month old female mice were immunostained with antibodies against lamp1 and parvalbumin (PV), chosen to allow lysosomes in individual neurons to be analyzed. In old versus young animals, lamp1-labeled lysosomes are larger in both PV neurons as well as surrounding pyramidal neurons. Lysosomes in PV neurons were quantified in 1 μm thick optical sections with ImageJ using Analyze Particles function; n=8 young, n=7 old. *p<0.001, Mann-Whitney Rank Sum test.\nMice were treated with apocynin in drinking water (initial dose 5 mg/kg and then ramping up to 100 mg/kg) beginning at 12 months old for 5 months. […]\nAn antigen retrieval method was performed on the sections for most antigens by heating in 10 mM citrate buffer (pH 6.0) for 10 minutes at 90° C. […] With HRP-conjugated secondary antibodies, fluorescence was developed with fluorescein or cyanine 3 TSA amplification systems. […]\nImages were captured using Zeiss LSM 510 or LSM 810 multiphoton laser confocal microscopes. […] Images were then analyzed and processed using Metamorph or Fiji software. To quantify the clusters of p62-containing aggregates, images were taken for 6 hippocampal regions from three sections per mouse, with 4 mice for each group. Hippocampal regions were divided into different subregions, and p62 clusters were counted. […]"}, "[2]": {"system": "p62-positive aggregates in hippocampus", "test": "p62-positive aggregates in hippocampus of aging mice after long-term treatment in drinking water", "type": "in vivo, mouse", "description": "Female C57BL6 mice received apocynin (50 mg/kg) or C3 (1 mg/kg/day) in their water from 12-17 mos of age, then perfused. Fixed brain were sectioned, and immunostained for p62. Confocal images were analyzed for 6 hippocampi/three sections per mouse, 4 mice per group. To quantify the p62-containing aggregates, aggregates were individually circled in the depicted region by a blinded investigator, and aggregate areas measured using ImageJ. Areas covered by aggregates, and number of clusters, are shown. Mean±SEM, *p<0.05, ***p<0.001, Mann-Whitney Rank Sum test. Animal studies were approved by the Animal Care Program at the University of California, San Diego, and Vanderbilt University Medical Center and are in accordance with the PHS Guide for the Care and Use of Laboratory Animals, USDA Regulations, and the AVMA Panel on Euthanasia. Young (3 to 5 month) and old (17 to 27 month) C57BL/6 mice, Tam-Thy1-YFP-Crc, tdTomato or 24 month old GFAP/GFP transgenic mice (JAX, 010835) were used for experiments. Lines which have the Tam-Thy1-YFP-Cre express both the Cre recombinase and YFP under control of the Thy1 promoter, which drives expression in a majority of hippocampal and cortical excitatory neurons, but not inhibitory neurons. Tam-Thy1-YFP-Cre:Stat3flox/flox (TF) mice have been generated, and have also been crossed with the Rosa26-tdTomato reporter mouse line to produce Tam-Thy1-YFP-Cre:Stat3flox/flox:tdTom (TFTD) mice. These reporter mice will express tdTom fluorescence in response to tamoxifen. […] The sections were kept in 30% sucrose, 30% ethylene glycol, and 1% PVP-40 at −20° C. until they were ready to be processed for immunostaining. […] With HRP-conjugated secondary antibodies, fluorescence was developed with fluorescein or cyanine 3 TSA amplification systems. […] Images were then analyzed and processed using Metamorph or Fiji software. To quantify the clusters of p62-containing aggregates, images were taken for 6 hippocampal regions from three sections per mouse, with 4 mice for each group. […]"}, "lysosomal v-ATPase": {"molecular_target": "lysosomal v-ATPase (Homo sapiens, UniProt P27449)", "sequence (P27449 whole entry)": "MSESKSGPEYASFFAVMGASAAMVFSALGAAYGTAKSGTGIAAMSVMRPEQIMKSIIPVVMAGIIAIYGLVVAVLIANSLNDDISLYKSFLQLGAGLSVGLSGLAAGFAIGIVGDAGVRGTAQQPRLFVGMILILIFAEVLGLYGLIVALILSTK", "sequence (P38606 whole entry partner)": "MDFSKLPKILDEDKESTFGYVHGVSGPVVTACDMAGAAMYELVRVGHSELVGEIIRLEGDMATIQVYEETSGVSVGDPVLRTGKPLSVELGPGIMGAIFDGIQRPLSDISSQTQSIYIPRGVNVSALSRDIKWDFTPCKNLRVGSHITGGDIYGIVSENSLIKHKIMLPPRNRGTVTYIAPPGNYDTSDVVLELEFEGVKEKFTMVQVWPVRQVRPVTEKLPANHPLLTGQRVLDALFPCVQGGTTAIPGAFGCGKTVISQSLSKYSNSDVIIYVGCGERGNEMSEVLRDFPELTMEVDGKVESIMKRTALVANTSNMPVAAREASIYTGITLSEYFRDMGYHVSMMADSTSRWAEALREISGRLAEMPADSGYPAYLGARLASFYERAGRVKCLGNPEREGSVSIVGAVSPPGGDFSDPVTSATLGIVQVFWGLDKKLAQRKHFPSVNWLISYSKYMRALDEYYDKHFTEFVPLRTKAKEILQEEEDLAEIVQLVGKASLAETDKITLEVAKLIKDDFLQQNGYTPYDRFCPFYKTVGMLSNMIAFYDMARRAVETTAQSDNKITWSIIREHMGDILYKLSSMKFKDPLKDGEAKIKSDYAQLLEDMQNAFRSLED", "details": "direct inhibition of lysosome acidification; cited from earlier work"}},
  "note": "Entries after “also recorded” stand apart in the source; their conditions may differ.",
  "data": [
    {"compound": "IL-6: inflammatory cytokine interleukin-6", "values": [
      {"measurement": "lysosome degradation of proteins, including p62", "setting": "mouse cortical cultures", "result": "impairs lysosome degradation of proteins"},
      {"measurement": "induction of Nox2, Nox4 and p22phox in brain", "setting": "Nox2, Nox4 and p22phox", "result": "induction of Nox2, Nox4 and p22phox"}
    ]},
    {"compound": "COc1cc(C(C)=O)ccc1O", "note": "[apocynin]", "values": [
      {"measurement": "size of lysosomes in neurons (lamp1 and CatD immunostaining)", "setting": "[1]", "result": "significant normalization (reduction) of intracellular lysosome size; also recorded: significantly reduced the size of lysosomes"},
      {"measurement": "cargo clearance", "setting": "[2]; apocynin 100 mg/kg/day, as in FIG. 5", "result": "improved cargo clearance"},
      {"measurement": "accumulation of p62 aggregates (number and size of p62-positive aggregates) in hippocampus", "setting": "[2]; female C57BL6 mice, in drinking water from 12-17 mos of age, apocynin 50 mg/kg/day, C3 1 mg/kg/day", "result": "reduction of both the number, and size of p62-positive aggregates; also recorded: reduces hippocampal aggregates; also recorded: lessons the accumulation of p62 aggregates"},
      {"measurement": "undegraded lysosome material throughout brain", "setting": "[2]; mice treated with apocynin (FIG. 5)", "result": "robust and highly significant reduction in undegraded lysosome material throughout brain"}
    ]},
    {"compound": "CO/C1=C\\C(C)=C\\[C@@H](C)[C@@H](O)[C@@H](C)C/C(C)=C/C=C/[C@H](OC)[C@@H]([C@@H](C)[C@@H](O)[C@H](C)[C@@]2(O)C[C@@H](O)[C@H](C)[C@@H](C(C)C)O2)OC1=O", "note": "[bafilomycin]", "values": [
      {"measurement": "lysosome size", "setting": "lysosomal v-ATPase", "result": "rapidly increases lysosome size within hours"}
    ]}
  ]
}
